Target: PAD4 (Homo sapiens, UniProt Q9UM07)
Assay: PAD4 Inhibition Assay (citrulline formation from BAEE substrate)
Assay type: biochemical
Settings: PAD4 75 nM, 60 minute preincubation at 37° C., 90 minutes
Protocol: PAD4 was diluted to 75 nM in Assay Buffer (50 mM Tris-HCl, 2 mM CaCl2), 2 mM DTT, 1 mM PMSF in H2O) and added to wells with various concentrations of compound or DMSO vehicle in Eppendorf tubes (final volume was 100 μL). Following a 60 minute preincubation at 37° C., the reaction was initiated by the addition of 10 μL substrate (22 mM BAEE in H2O) at 37° C. The reaction was stopped after 90 minutes by the addition of 25 μL HClO4 (5 M), 125 μL Reagent A (10 g/L diacetyl monoxime and 15 g/L NaCl in H2O) and 250 μL Reagent B (10 mg/mL antipyrine and 1.0 mg/mL FeCl3 diluted in detection buffer containing 25% H2SO4, 25% H3PO4 and 50% H2O) in sequence. This assay was quenched in an ice-bath for 5 minutes after boiling for 30 minutes. The citrulline formation was measured in fluorescence (κ=465 nm) on microplate reader and the IC50 was calculated by GraphPad Prism.

PAD4, sequence (Q9UM07 whole entry): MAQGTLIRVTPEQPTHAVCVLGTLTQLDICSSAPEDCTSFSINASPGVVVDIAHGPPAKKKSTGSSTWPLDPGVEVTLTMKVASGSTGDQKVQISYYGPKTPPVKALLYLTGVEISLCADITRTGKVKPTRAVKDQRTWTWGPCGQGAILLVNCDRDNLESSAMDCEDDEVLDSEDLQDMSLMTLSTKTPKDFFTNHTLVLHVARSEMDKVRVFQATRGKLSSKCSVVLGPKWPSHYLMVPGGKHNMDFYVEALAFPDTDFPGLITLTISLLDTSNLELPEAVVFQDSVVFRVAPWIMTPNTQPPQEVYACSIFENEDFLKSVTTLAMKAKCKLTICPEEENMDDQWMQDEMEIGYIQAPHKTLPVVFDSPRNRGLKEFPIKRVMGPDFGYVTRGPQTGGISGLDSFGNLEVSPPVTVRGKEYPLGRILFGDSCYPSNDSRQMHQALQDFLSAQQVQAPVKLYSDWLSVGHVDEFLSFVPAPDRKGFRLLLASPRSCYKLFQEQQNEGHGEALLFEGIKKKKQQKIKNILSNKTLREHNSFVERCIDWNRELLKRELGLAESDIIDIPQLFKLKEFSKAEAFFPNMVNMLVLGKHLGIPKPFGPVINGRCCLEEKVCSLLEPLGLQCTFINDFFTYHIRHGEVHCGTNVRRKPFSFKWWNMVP

SMILES | IC50
COc1cc2c(OC)cccc2cc1C(=O)N[C@@H](CCCNC(=N)CF)c1ncc(-c2cccc(Cl)c2)o1 [EX-13, (S)-N-(1-(5-(3-Chlorophenyl)oxazol-2-yl)-4-(2-fluoroacetimidamido)butyl)-3,5-dimethoxy-2-naphthamide] | 200 to 500 nM
COc1cccc(Cl)c1C(=O)N[C@@H](CCCNC(=N)CF)c1ncc(-c2cccc(C)c2)o1 [EX-28, (S)-2-Chloro-N-(4-(2-fluoroacetimidamido)-1-(5-(m-tolyl)oxazol-2-yl)butyl)-6-methoxybenzamide] | 200 to 500 nM
COc1ccc(N2CCOCC2)cc1C(=O)N[C@@H](CCCNC(=N)CF)c1ncc(-c2ccccc2)o1 [EX-17, (S)-N-(4-(2-Fluoroacetimidamido)-1-(5-phenyloxazol-2-yl)butyl)-2-methoxy-5-morpholinobenzamide] | > 500 nM
COc1cccc(Cl)c1C(=O)N[C@@H](CCCNC(=N)CF)c1ncc(-c2ccccc2Cl)o1 [EX-26, (S)-2-Chloro-N-(1-(5-(2-chlorophenyl)oxazol-2-yl)-4-(2-fluoroacetimidamido)butyl)-6-methoxybenzamide] | 200 to 500 nM
COc1cccc(Cl)c1C(=O)N[C@@H](CCCNC(=N)CF)c1ncc(-c2cccc(Cl)c2)o1 [EX-33, (S)-2-Chloro-N-(1-(5-(3-chlorophenyl)oxazol-2-yl)-4-(2-fluoroacetimidamido)butyl)-6-methoxybenzamide] | 200 to 500 nM

Other lines, results leading:

IC50 | SMILES
200 to 500 nM | N=C(CF)NCCC[C@H](NC(=O)c1cccc(N2CCCC2)c1)c1ncc(-c2ccccc2)o1 [EX-16, (S)—N-(4-(2-fluoroacetimidamido)-1-(5-phenyloxazol-2-yl)butyl)-3-(pyrrolidin-1-yl)benzamide]
< 200 nM | COc1cccc(OC)c1C(=O)N[C@@H](CCCNC(=N)CF)c1ncc(-c2ccccc2Cl)o1 [EX-21, (S)-N-(1-(5-(2-Chlorophenyl)oxazol-2-yl)-4-(2-fluoroacetimidamido)butyl)-2,6-dimethoxybenzamide]
< 200 nM | COc1cccc(Cl)c1C(=O)N[C@@H](CCCNC(=N)CF)c1ncc(-c2ccc(F)cc2)o1 [EX-24, (S)-2-Chloro-N-(4-(2-fluoroacetimidamido)-1-(5-(4-fluorophenyl)oxazol-2-yl)butyl)-6-methoxybenzamide]

From US20230381146A1, “SUBSTITUTED HETEROARYL COMPOUNDS AND USE THEREOF” (HELIOS HUAMING BIOPHARMA CO., LTD., priority 2020, published 2023)
